Literature values as cited in patent publication US11725025B2, “Progesterone phosphate analogs and uses related thereto” (EMORY UNIVERSITY, priority 2013, dated 2023).

Columns and labels:
[1] = test system: moderate to severe TBI patients; settings: 3 days of intravenous progesterone treatment; 100 moderate to severe TBI patients

CC(=O)[C@H]1CC[C@H]2[C@@H]3CCC4=CC(=O)CC[C@]4(C)[C@H]3CC[C@]12C [progesterone]
functional outcomes at 30 days post-injury [1]: significantly improved
reduction of mortality [1]: over 60%
solubility in aqueous-based formulations: insoluble
